Here are results for 11 compounds from US20250179066A1, “ZWITTERIONIC ANTIBACTERIAL COMPOUNDS” (Hoffmann-La Roche Inc., priority 2022, published 2025).

Structures can show the parent of a compound that is named as a salt.

This test deals with Acinetobacter baumannii ATCC17961. Nature of the test: Antimicrobial susceptibility testing: 90% growth inhibitory concentration (IC90) determination. The class given is cell-based. The following applies: Acinetobacter baumannii, ATCC17961, 16 h, 90% growth inhibitory concentration against Acinetobacter baumannii ATCC17961, Iso-Sensitest broth, OD 600 nm over 16 h; read-out: ATCC 17961 IC90. The procedure, abridged: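 Twofold serial dilutions (e.g. 10 to 0.0195 μM final) in Iso-Sensitest broth inoculated at ~5×10^5 CFU/mL, incubated at 35±2° C. OD600 read every minute for 16 h; IC90 is the concentration inhibiting 90% of growth during logarithmic phase.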
Usually IC90 stands for the concentration at which the effect reaches the 90% level. For `Cn1c(-c2cn(-c3ccc4[nH]c(CC(N)=O)cc4n3)nc2C(F)(F)F)cnc1C(=O)Nc1ccc(C(=O)N2CCN(C(=O)[C@H]3CC[N@+](CC(=O)O)(CC4CNC4)CC3)CC2)c(Cl)c1` [Example 167, cis-2-[4-[4-[4-[[5-[1-[2-(2-amino-2-oxo-ethyl)-1H-pyrrolo[3,2-b]pyridin-5-yl]-3-(trifluoromethyl)pyrazol-4-yl]-1-methyl-imidazole-2-carbonyl]amino]-2-chloro-benzoyl]piperazine-1-carbonyl]-1-(azetidin-3-ylmethyl)piperidin-1-ium-1-yl]acetic acid;2,2,2-trifluoroacetate], the IC90 came out at 715 nM.

Turning to `Cn1c(-c2cn(-c3cc4c(ccn4CC(N)=O)cn3)nc2C(F)(F)F)cnc1C(=O)Nc1ccc(C(=O)N2CCN(C(=O)[C@H]3CC[N@+](CC(=O)O)(CC4CNC4)CC3)CC2)c(Cl)c1` [Example 168, cis-2-[4-[4-[4-[[5-[1-[1-(2-amino-2-keto-ethyl)pyrrolo[3,2-c]pyridin-6-yl]-3-(trifluoromethyl)pyrazol-4-yl]-1-methyl-imidazole-2-carbonyl]amino]-2-chloro-benzoyl]piperazine-1-carbonyl]-1-(azetidin-3-ylmethyl)piperidin-1-ium-1-yl]acetic Acid.1:1 2,2,2-trifluoroacetate], the IC90 was determined as 555 nM.

Consider `Cn1c(-c2cn(-c3ccc4c(cc(CO)n4CC#N)n3)nc2C(F)(F)F)cnc1C(=O)Nc1ccc(C(=O)N2CCN(C(=O)[C@H]3CC[N@+](CC(=O)O)(CC4CNC4)CC3)CC2)c(Cl)c1` [Example 169, cis-2-[1-(azetidin-3-ylmethyl)-4-[4-[2-chloro-4-[[5-[1-[1-(cyanomethyl)-2-methylol-pyrrolo[3,2-b]pyridin-5-yl]-3-(trifluoromethyl)pyrazol-4-yl]-1-methyl-imidazole-2-carbonyl]amino]benzoyl]piperazine-1-carbonyl]piperidin-1-ium-1-yl]acetic acid. 1:1 2,2,2-trifluoroacetate], for which the IC90 amounted to 466 nM.

For the compound `Cn1c(-c2cn(-c3ccc(N)cc3F)nc2C(F)(F)F)cnc1C(=O)Nc1ccc(C(=O)N2CCN(C(=O)[C@H]3CC[N@@+](CCCN)(CC(=O)O)CC3)CC2)c(Cl)c1` [Example 170, cis-2-[4-[4-[4-[[5-[1-(4-amino-2-fluoro-phenyl)-3-(trifluoromethyl)pyrazol-4-yl]-1-methyl-imidazole-2-carbonyl]amino]-2-chloro-benzoyl]piperazine-1-carbonyl]-1-(3-aminopropyl)piperidin-1-ium-1-yl]acetic acid. 1:1 2,2,2-trifluoroacetate], the IC90 turned out to be 199 nM.

With `Cn1c(-c2cn(-c3ccc4[nH]c(CO)cc4n3)nc2C(F)(F)F)cnc1C(=O)Nc1ccc(C(=O)N2CCN(C(=O)[C@H]3CC[N@@+](CCCN)(CC(=O)O)CC3)CC2)c(Cl)c1` [Example 171, cis-2-[1-(3-aminopropyl)-4-[4-[2-chloro-4-[[1-methyl-5-[1-(2-methylol-1H-pyrrolo[3,2-b]pyridin-5-yl)-3-(trifluoromethyl)pyrazol-4-yl]imidazole-2-carbonyl]amino]benzoyl]piperazine-1-carbonyl]piperidin-1-ium-1-yl]acetic acid. 1:1 2,2,2-trifluoroacetate], the IC90 amounted to 281 nM.

On to `CN(C)C(=O)c1c[nH]c2cc(-n3cc(-c4cnc(C(=O)Nc5ccc(C(=O)N6CCN(C(=O)[C@H]7CC[N@+](CC(=O)O)(CC8CNC8)CC7)CC6)c(Cl)c5)n4C)c(C(F)(F)F)n3)ncc12` [Example 172, cis-2-[1-(azetidin-3-ylmethyl)-4-[4-[2-chloro-4-[[5-[1-[3-(dimethylcarbamoyl)-1H-pyrrolo[3,2-c]pyridin-6-yl]-3-(trifluoromethyl)pyrazol-4-yl]-1-methyl-imidazole-2-carbonyl]amino]benzoyl]piperazine-1-carbonyl]piperidin-1-ium-1-yl]acetic acid. 1:1 2,2,2-trifluoroacetate], for which the IC90 worked out at 194 nM.

With `Cn1c(-c2cn(-c3cc4[nH]ncc4cn3)nc2C(F)(F)F)cnc1C(=O)Nc1ccc(C(=O)N2CCN(C(=O)[C@H]3CC[N@+](CC(=O)O)(CC4CNC4)CC3)CC2)c(Cl)c1` [Example 173, cis-2-[1-(azetidin-3-ylmethyl)-4-[4-[2-chloro-4-[[1-methyl-5-[1-(1H-pyrazolo[4,3-c]pyridin-6-yl)-3-(trifluoromethyl)pyrazol-4-yl]imidazole-2-carbonyl]amino]benzoyl]piperazine-1-carbonyl]piperidin-1-ium-1-yl]acetic acid. 1:1 2,2,2-trifluoroacetate], the IC90 is 352 nM.

Consider `Cn1c(-c2cn(-c3cc4c(ccn4CCO)cn3)nc2C(F)(F)F)cnc1C(=O)Nc1ccc(C(=O)N2CCN(C(=O)[C@H]3CC[N@+](CC(=O)O)(CC4CNC4)CC3)CC2)c(Cl)c1` [Example 174, cis-2-[1-(azetidin-3-ylmethyl)-4-[4-[2-chloro-4-[[5-[1-[1-(2-hydroxyethyl)pyrrolo[3,2-c]pyridin-6-yl]-3-(trifluoromethyl)pyrazol-4-yl]-1-methyl-imidazole-2-carbonyl]amino]benzoyl]piperazine-1-carbonyl]piperidin-1-ium-1-yl]acetic acid. 1:1 2,2,2-trifluoroacetate], for which the IC90 is 430 nM.

Regarding `CNc1ccc(-n2cc(-c3cnc(C(=O)Nc4ccc(C(=O)N5CCN(C(=O)[C@H]6CC[N@+](CC(=O)O)(CC7CNC7)CC6)CC5)c(Cl)c4)n3C)c(C(F)(F)F)n2)c(F)c1` [Example 176, cis-2-[1-(azetidin-3-ylmethyl)-4-[4-[2-chloro-4-[[5-[1-[2-fluoro-4-(methylamino)phenyl]-3-(trifluoromethyl)pyrazol-4-yl]-1-methyl-imidazole-2-carbonyl]amino]benzoyl]piperazine-1-carbonyl]piperidin-1-ium-1-yl]acetic acid. 1:1 formate], the IC90 was 88.1 nM.

Take `Cn1c(-c2cn(-c3cc4[nH]cc(C(=O)N5CCOCC5)c4cn3)nc2C(F)(F)F)cnc1C(=O)Nc1ccc(C(=O)N2CCN(C(=O)[C@H]3CC[N@+](CC(=O)O)(CC4CNC4)CC3)CC2)c(Cl)c1` [Example 177, cis-2-[1-(azetidin-3-ylmethyl)-4-[4-[2-chloro-4-[[1-methyl-5-[1-[3-(morpholine-4-carbonyl)-1H-pyrrolo[3,2-c]pyridin-6-yl]-3-(trifluoromethyl)pyrazol-4-yl]imidazole-2-carbonyl]amino]benzoyl]piperazine-1-carbonyl]piperidin-1-ium-1-yl]acetic acid. 1:1 2,2,2-trifluoroacetate]: the concentration for an effect of 90% (IC90) was found to be 201 nM.

With `Cn1c(-c2cn(-c3ccc(NCCO)cc3F)nc2C(F)(F)F)cnc1C(=O)Nc1ccc(C(=O)N2CCN(C(=O)[C@H]3CC[N@+](CC(=O)O)(CC4CNC4)CC3)CC2)c(Cl)c1` [Example 178, cis-2-[1-(azetidin-3-ylmethyl)-4-[4-[2-chloro-4-[[5-[1-[2-fluoro-4-(2-hydroxyethylamino)phenyl]-3-(trifluoromethyl)pyrazol-4-yl]-1-methyl-imidazole-2-carbonyl]amino]benzoyl]piperazine-1-carbonyl]piperidin-1-ium-1-yl]acetic acid. 1:1 formate], the IC90 was 135 nM.
